According to ChEMBL document CHEMBL3102705, “Design, synthesis and investigation on the structure-activity relationships of N-substituted 2-aminothiazole derivatives as antitubercular agents” (Eur J Med Chem, 2014):
Converted amounts (≈) assume the structure as drawn.

Columns and labels:
Type in all cases: functional
[1] = test system: Mycobacterium tuberculosis; assay: Antitubercular activity against isoniazid-resistant Mycobacterium tuberculosis H37Rv ATCC 27294 assessed as growth inhibition after 16 to 24 hrs by microplate-Alamar Blue assay
[2] = test system: Mycobacterium tuberculosis; assay: Antitubercular activity against moxifloxacin-resistant Mycobacterium tuberculosis H37Rv ATCC 27294 assessed as growth inhibition after 16 to 24 hrs by microplate-Alamar Blue assay
[3] = test system: Mycobacterium tuberculosis; assay: Antitubercular activity against rifampin-resistant Mycobacterium tuberculosis H37Rv ATCC 27294 assessed as growth inhibition after 16 to 24 hrs by microplate-Alamar Blue assay
[4] = test system: Mycobacterium tuberculosis; assay: Antitubercular activity against capreomycin-resistant Mycobacterium tuberculosis H37Rv ATCC 27294 assessed as growth inhibition after 16 to 24 hrs by microplate-Alamar Blue assay

Compound | MIC [1] [µM] | MIC [2] [µM] | MIC [3] [µM] | MIC [4] [µM]
Fc1ccc(C(F)(F)F)cc1-c1csc(Nc2ccc(Cl)cc2)n1 | 10.4 (≈ 3.88 µg/mL) | 15.5 (≈ 5.78 µg/mL) | 10.9 (≈ 4.06 µg/mL) | 17.4 (≈ 6.49 µg/mL)
Fc1ccc(C(F)(F)F)cc1-c1csc(Nc2cc(Cl)cc(Cl)c2)n1 | 7.1 (≈ 2.89 µg/mL) | 12 (≈ 4.89 µg/mL) | 9.7 (≈ 3.95 µg/mL) | 12 (≈ 4.89 µg/mL)
NNC(=O)c1ccncc1 [ISONIAZID] | > 8 | 3.6 (≈ 0.494 µg/mL) | 0.85 (≈ 0.117 µg/mL) | 0.81 (≈ 0.111 µg/mL)
O=[N+]([O-])c1cn2c(n1)OC[C@@H](OCc1ccc(OC(F)(F)F)cc1)C2 [PRETOMANID] | 0.43 (≈ 0.154 µg/mL) | 0.88 (≈ 0.316 µg/mL) | 0.51 (≈ 0.183 µg/mL) | 1.26 (≈ 0.453 µg/mL)
CO[C@H]1/C=C/O[C@@]2(C)Oc3c(C)c(O)c4c(O)c(c(/C=N/N5CCN(C)CC5)c(O)c4c3C2=O)NC(=O)/C(C)=C\C=C\[C@H](C)[C@H](O)[C@@H](C)[C@@H](O)[C@@H](C)[C@H](OC(C)=O)[C@@H]1C [RIFAMPIN] | 0.06 (≈ 0.0494 µg/mL) | 0.14 (≈ 0.115 µg/mL) | > 4 | 0.05 (≈ 0.0411 µg/mL)
